We go through 15 molecules from US12390472B2 (SUZHOU SINOVENT PHARMACEUTICALS CO., LTD., priority 2018, dated 2025).

As usually defined, the IC50 is the concentration at which inhibition is half-maximal.

Each structure is given as a SMILES string. A value given as a limit tells only on which side of the number the result lay.

The target in one assay is EZH2 enzyme complex (Homo sapiens (Human), UniProt Q15910). Description: Test on EZH2 inhibitory activity (TR-FRET). Format: biochemical. As to conditions: EZH2 enzyme complex 25 ng/uL, histone H3 peptide 4 uM, SAM 2 uM, 300 min; read-out: IC50 of EZH2 inhibition. Background: TR-FRET usually uses a lanthanide donor and a delayed reading to cut background.
Sequence of EZH2 enzyme complex (Q15910 whole entry): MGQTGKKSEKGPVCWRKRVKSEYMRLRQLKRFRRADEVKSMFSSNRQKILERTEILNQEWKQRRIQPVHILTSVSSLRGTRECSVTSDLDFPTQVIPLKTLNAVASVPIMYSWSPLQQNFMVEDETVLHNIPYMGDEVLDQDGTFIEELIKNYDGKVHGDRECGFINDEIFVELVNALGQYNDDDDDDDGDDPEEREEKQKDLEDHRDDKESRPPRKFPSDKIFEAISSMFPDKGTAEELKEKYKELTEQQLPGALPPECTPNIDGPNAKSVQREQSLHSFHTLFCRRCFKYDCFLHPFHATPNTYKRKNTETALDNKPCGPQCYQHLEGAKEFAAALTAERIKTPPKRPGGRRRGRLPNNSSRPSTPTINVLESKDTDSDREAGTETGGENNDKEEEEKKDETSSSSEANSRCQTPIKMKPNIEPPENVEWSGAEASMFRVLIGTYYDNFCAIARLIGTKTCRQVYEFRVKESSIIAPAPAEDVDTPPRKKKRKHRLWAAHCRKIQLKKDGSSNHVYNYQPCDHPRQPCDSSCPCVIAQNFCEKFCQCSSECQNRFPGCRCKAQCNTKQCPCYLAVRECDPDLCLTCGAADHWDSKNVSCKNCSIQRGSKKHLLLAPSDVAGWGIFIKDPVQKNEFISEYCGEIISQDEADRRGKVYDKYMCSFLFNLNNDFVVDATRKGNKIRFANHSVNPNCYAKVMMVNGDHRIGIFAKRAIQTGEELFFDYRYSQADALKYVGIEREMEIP
Sequence of EZH2 enzyme complex (O75530 whole entry partner): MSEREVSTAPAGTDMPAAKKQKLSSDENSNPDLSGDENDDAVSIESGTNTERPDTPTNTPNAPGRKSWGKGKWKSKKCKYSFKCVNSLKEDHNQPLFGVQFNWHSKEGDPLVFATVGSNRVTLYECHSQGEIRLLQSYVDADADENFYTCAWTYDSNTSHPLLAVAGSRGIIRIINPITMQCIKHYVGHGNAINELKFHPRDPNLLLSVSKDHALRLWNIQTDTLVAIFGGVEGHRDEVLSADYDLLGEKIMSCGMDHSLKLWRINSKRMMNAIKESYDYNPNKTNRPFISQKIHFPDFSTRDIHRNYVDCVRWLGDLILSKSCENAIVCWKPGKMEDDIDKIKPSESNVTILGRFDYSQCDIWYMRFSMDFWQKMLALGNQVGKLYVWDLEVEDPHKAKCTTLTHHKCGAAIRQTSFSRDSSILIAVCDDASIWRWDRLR
Sequence of EZH2 enzyme complex (Q15022 whole entry partner): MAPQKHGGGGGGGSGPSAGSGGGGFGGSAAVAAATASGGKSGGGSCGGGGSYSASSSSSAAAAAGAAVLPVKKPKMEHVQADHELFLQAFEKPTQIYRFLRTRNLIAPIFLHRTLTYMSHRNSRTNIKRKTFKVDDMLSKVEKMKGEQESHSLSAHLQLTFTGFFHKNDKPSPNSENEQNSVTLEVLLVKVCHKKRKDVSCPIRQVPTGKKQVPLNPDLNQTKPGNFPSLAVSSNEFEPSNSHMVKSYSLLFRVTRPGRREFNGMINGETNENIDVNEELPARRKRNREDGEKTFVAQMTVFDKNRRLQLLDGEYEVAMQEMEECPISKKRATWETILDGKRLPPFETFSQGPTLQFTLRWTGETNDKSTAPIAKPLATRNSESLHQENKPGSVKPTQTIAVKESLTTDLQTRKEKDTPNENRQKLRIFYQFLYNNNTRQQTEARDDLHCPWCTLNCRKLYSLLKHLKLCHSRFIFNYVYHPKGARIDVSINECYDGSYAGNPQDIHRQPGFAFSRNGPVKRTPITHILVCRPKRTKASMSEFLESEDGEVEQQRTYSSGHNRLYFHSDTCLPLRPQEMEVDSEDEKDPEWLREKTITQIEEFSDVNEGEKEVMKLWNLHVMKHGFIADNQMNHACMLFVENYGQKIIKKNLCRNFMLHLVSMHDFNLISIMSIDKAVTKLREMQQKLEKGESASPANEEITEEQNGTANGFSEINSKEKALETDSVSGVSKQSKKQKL
The test system of a further assay is Pfeiffer. In words: Methylated lysine of histone-H3 (H3K27Me3) detection by ELISA, Pfeiffer cells. As to conditions: Homo sapiens, 168 h, 7 days treatment, H3K27Me3 normalized to total histone-3, read-out: IC50 of cell methylation, Pfeiffer. Format: cell-based, human. The protocol:
(§1) The operations for adherent cells and suspension cells cultured in 96-well plates were slightly different after they had been treated with compound (4-fold dilution 20 uM-0.009 nM, 3 duplicate wells) for 7 days, and the operations are summarized as follows: For adherent cells, after discarding the medium, 75 uL of 1-fold hypotonic lysis buffer (10 mM Tris-HCl, pH 7.5, containing halt protease inhibitor and PMSF with a final concentration of 1 mM) was added; the plate was frozen at −80° C. for at least 1 h or overnight; once the plate was taken away from the −80° C. environment, 120 uL (to a final volume of about 195 uL) of 1-fold hypotonic lysis buffer (containing protease inhibitor) was added, and the plate was thawed at room temperature and shaken for 2 min for mixing; and 8 uL (to a final volume of about 203 uL) of 2.5 M NaCl was added to each well to a final NaCl concentration of 100 mM and then the plate was shaken for an additional 2 min for mixing.
(§2) For suspension cells (final volume of medium was 100 uL/well), 25 uL of 5-fold hypotonic lysis buffer (50 mM Tris-HCl, pH 7.5, containing halt protease inhibitor and PMSF with a final concentration of 1 mM) was added, and the plate was frozen at −80° C. for at least 1 h or overnight. Once the plate was taken away from the −80° C. environment, 20 uL of 0.625 M NaCl was added to each well to a final NaCl concentration of about 100 mM, and the mixture was mixed well.
(§3) 75 uL or 100 uL of sample (with duplicate wells provided) was added to two 96-well ELISA plates (ThermoFisher Scientific; Immulon 4HBX 3885) and the plates were coated with total protein lysate and incubated overnight at 4° C. 50 uL of lysate was retained for protein quantitation if necessary. The sealing of the plates must be ensured. The plates were washed twice with 300 uL of 1×PBST (PBS containing 0.05% Tween 20) per well. Each well was blocked with 300 uL of dilution (PBS+2% BSA+0.05% Tween 20), incubated for 2 h at room temperature, and washed twice with 1×PBST. Primary antibodies were diluted with a dilution solution containing 1% BSA+0.05% Tween 20. 75-100 uL of anti-H3K27Me3 antibody (CST; 9733; 50% glycerol stock, 1:1,000) or anti-total histone-3 antibody (Abcam; ab1791; 50% glycerol stock, 1:10,000) was added to each well. The plates were incubated for 90 min at room temperature or incubated overnight at 4° C. The plates were washed three times with 1×PBST. 75-100 uL of anti-Rb-IgG-HRP secondary antibody (Cell Signaling Technology; 7074) was added per well, 1:2000 diluted secondary antibody for anti-H3K 27Me3 plate and 1:6000 diluted secondary antibody for anti-histone total histone-3 plate. The plates were incubated at room temperature for 90 min. The plate assayed with anti-histone-3 antibody was used to normalize the data for the corresponding plate assayed with anti-H3K 27me3. The plates must be washed at least three times with 1×PBST after primary or secondary antibody incubation. The plates were assayed by adding 75-100 uL of 3,3′,5,5′-tetramethylbenzidine substrate (CST or ThermoFisher Scientific; TMBS) per well and incubated away from light for 30 min at 37° C. The reaction was terminated by adding 100 uL of 0.5 M H2SO4 per well. The absorbance was read at 450 nm. Curve fitting was performed using Graph Pad program.
A general note: An ELISA detects its analyte on a solid surface through an enzyme-linked reagent.

Another assay relates to WSU-DLCL2. Description: Methylated lysine of histone-H3 (H3K27Me3) detection by ELISA, WSU-DLCL2 cells. The format is cell-based. As to conditions: Homo sapiens, WSUDLCL2, 168 h; WSU-DLCL2, 7 days treatment, H3K27Me3 normalized to total histone-3; read-out: IC50 of cell methylation, WSU-DLCL2. The protocol: as §1, §2, §3

Regarding `CCN(c1cc(OC2CC(C)(C)C2)cc(C(=O)NCc2c(C)cc(C)[nH]c2=O)c1C)C1CCOCC1` [Example 12, N-((4,6-dimethyl-2-oxo-1,2-dihydropyridin-3-yl)methyl)-5-(3,3-dimethylcyclobutoxy)-3-(ethyl(tetrahydro-2H-pyran-4-yl)amino)-2-methylbenzamide], the IC50 was 0.01 to 0.1 µM at EZH2 enzyme complex, 0.05 to 0.5 µM in the assay with Pfeiffer and > 1 µM in the assay with WSU-DLCL2.

Take `CCN(c1cc(OC2CC(C(=O)N3CCOCC3)C2)cc(C(=O)NCc2c(C)cc(C)[nH]c2=O)c1C)C1CCOCC1` (stereo not drawn) [Example 13, N-((4,6-dimethyl-2-oxo-1,2-dihydropyridin-3-yl)methyl)-3-(ethyl(tetrahydro-2H-pyran-4-yl)amino)-2-methyl-5-(3-(morpholine-4-carbonyl)cyclobutoxy)benzamide]: the IC50 on EZH2 enzyme complex was 0.01 to 0.1 µM; in the assay on Pfeiffer it was < 0.05 µM; with WSU-DLCL2, 0.05 to 0.5 µM.

On to `CCN(c1cc(C2CCC2)cc(C(=O)NCc2c(C)cc(C)[nH]c2=O)c1C)C1CCOCC1` [Example 15, 5-cyclobutyl-N-((4,6-dimethyl-2-oxo-1,2-dihydropyridin-3-yl)methyl)-3-(ethyl(tetrahydro-2H-pyran-4-yl)amino)-2-methylbenzamide], for which the figures for the IC50 on EZH2 enzyme complex, in the assay with Pfeiffer and in the assay with WSU-DLCL2 were 0.01 to 0.1 µM, < 0.05 µM and 0.05 to 0.5 µM, respectively.

As to `CCN(c1cc(OC2CC(CN3CCOCC3)C2)cc(C(=O)NCc2c(C)cc(C)[nH]c2=O)c1C)C1CCOCC1` (stereo not drawn) [Example 16, N-((4,6-dimethyl-2-oxo-1,2-dihydropyridin-3-yl)methyl)-3-(ethyl(tetrahydro-2H-pyran-4-yl)amino)-2-methyl-5-(3-(morpholinylmethyl)cyclobutoxy)benzamide], the half-inhibitory concentration (IC50) was 0.01 to 0.1 µM at EZH2 enzyme complex, < 0.05 µM in the assay on Pfeiffer and 0.05 to 0.5 µM with WSU-DLCL2.

`CCN(c1cc(O[C@H]2C[C@@H](N3CCNCC3)C2)cc(C(=O)NCc2c(C)cc(C)[nH]c2=O)c1C)C1CCOCC1` [Example 17, N-((4,6-dimethyl-2-oxo-1,2-dihydropyridin-3-yl)methyl)-3-(ethyl(tetrahydro-2H-pyran-4-yl)amino)-2-methyl-5-(cis-3-(piperazin-1-yl)cyclobutoxy)benzamide]: the figures for the half-maximal inhibitory concentration (IC50) at EZH2 enzyme complex, in the assay on Pfeiffer and in the assay with WSU-DLCL2 were < 0.01 µM, < 0.05 µM and 0.05 to 0.5 µM, respectively.

On to `CCN(c1cc(O[C@H]2C[C@H](N3CCNCC3)C2)cc(C(=O)NCc2c(C)cc(C)[nH]c2=O)c1C)C1CCOCC1` [Example 18, N-((4,6-dimethyl-2-oxo-1,2-dihydropyridin-3-yl)methyl)-3-(ethyl(tetrahydro-2H-pyran-4-yl)amino)-2-methyl-5-(trans-3-(piperazin-1-yl)cyclobutoxy)benzamide], for which the values for the IC50 at EZH2 enzyme complex, with Pfeiffer and in the assay on WSU-DLCL2 were 0.01 to 0.1 µM, < 0.05 µM and 0.05 to 0.5 µM, respectively.

As to `CCN(c1cc(O[C@H]2C[C@@H](N3CCN(C)CC3)C2)cc(C(=O)NCc2c(C)cc(C)[nH]c2=O)c1C)C1CCOCC1` [Example 19, N-((4,6-dimethyl-2-oxo-1,2-dihydropyridin-3-yl)methyl)-3-(ethyl(tetrahydro-2H-pyran-4-yl)amino)-2-methyl-5-(cis-3-(4-methylpiperazin-1-yl)cyclobutoxy)benzamide], the concentration for half-maximal inhibition (IC50) was 0.01 to 0.1 µM on EZH2 enzyme complex, < 0.05 µM in the assay on Pfeiffer and 0.05 to 0.5 µM with WSU-DLCL2.

With `CCN(c1cc(O[C@H]2C[C@H](N3CCN(C)CC3)C2)cc(C(=O)NCc2c(C)cc(C)[nH]c2=O)c1C)C1CCOCC1` [Example 20, N-((4,6-dimethyl-2-oxo-1,2-dihydropyridin-3-yl)methyl)-3-(ethyl(tetrahydro-2H-pyran-4-yl)amino)-2-methyl-5-(trans-3-(4-methylpiperazin-1-yl)cyclobutoxy)benzamide], the IC50 at EZH2 enzyme complex was 0.01 to 0.1 µM; with Pfeiffer, < 0.05 µM; in the assay on WSU-DLCL2, 0.05 to 0.5 µM.

For the molecule `CCN(c1cc(O[C@H]2C[C@@H](N3CCN(C(C)C)CC3)C2)cc(C(=O)NCc2c(C)cc(C)[nH]c2=O)c1C)C1CCOCC1` [Example 21, N-((4,6-dimethyl-2-oxo-1,2-dihydropyridin-3-yl)methyl)-3-(ethyl(tetrahydro-2H-pyran-4-yl)amino)-5-(cis-3-(4-isopropylpiperazin-1-yl)cyclobutoxy)-2-methylbenzamide], the values for the IC50 at EZH2 enzyme complex, with Pfeiffer and in the assay on WSU-DLCL2 were 0.01 to 0.1 µM, < 0.05 µM and 0.05 to 0.5 µM, respectively.

Turning to `CCN(c1cc(O[C@H]2C[C@H](N3CCN(C(C)C)CC3)C2)cc(C(=O)NCc2c(C)cc(C)[nH]c2=O)c1C)C1CCOCC1` [Example 22, N-((4,6-dimethyl-2-oxo-1,2-dihydropyridin-3-yl)methyl)-3-(ethyl(tetrahydro-2H-pyran-4-yl)amino)-5-(trans-3-(4-isopropylpiperazin-1-yl)cyclobutoxy)-2-methylbenzamide], the IC50 at EZH2 enzyme complex was 0.01 to 0.1 µM; in the assay on Pfeiffer it was < 0.05 µM; in the assay on WSU-DLCL2 it was 0.05 to 0.5 µM.

Take `CCN1CCN([C@H]2C[C@@H](Oc3cc(C(=O)NCc4c(C)cc(C)[nH]c4=O)c(C)c(N(CC)C4CCOCC4)c3)C2)CC1` [Example 23, N-((4,6-dimethyl-2-oxo-1,2-dihydropyridin-3-yl)methyl)-3-(ethyl(tetrahydro-2H-pyran-4-yl)amino)-5-(cis-3-(4-ethylpiperazin-1-yl)cyclobutoxy)-2-methylbenzamide]: the IC50 at EZH2 enzyme complex is 0.01 to 0.1 µM; with Pfeiffer, < 0.05 µM; with WSU-DLCL2 it was > 1 µM.

For `CCN1CCN([C@H]2C[C@H](Oc3cc(C(=O)NCc4c(C)cc(C)[nH]c4=O)c(C)c(N(CC)C4CCOCC4)c3)C2)CC1` [Example 24, N-((4,6-dimethyl-2-oxo-1,2-dihydropyridin-3-yl)methyl)-3-(ethyl(tetrahydro-2H-pyran-4-yl)amino)-5-(trans-3-(4-ethylpiperazin-1-yl)cyclobutoxy)-2-methylbenzamide], the values for the concentration for half-maximal inhibition (IC50) on EZH2 enzyme complex, in the assay on Pfeiffer and in the assay with WSU-DLCL2 were < 0.01 µM, < 0.05 µM and 0.05 to 0.5 µM, respectively.

On to `CCN(c1cc(O[C@H]2C[C@@H](N3CCN(C(C)=O)CC3)C2)cc(C(=O)NCc2c(C)cc(C)[nH]c2=O)c1C)C1CCOCC1` [Example 25, cis-5-(3-(4-acetylpiperazin-1-yl)cyclobutoxy)-N-((4,6-dimethyl-2-oxo-1,2-dihydropyridin-3-yl)methyl)-3-(ethyl(tetrahydro-2H-pyran-4-yl)amino)-2-methylbenzamide], for which the half-maximal inhibitory concentration (IC50) at EZH2 enzyme complex is 0.01 to 0.1 µM; in the assay on Pfeiffer it was < 0.05 µM; in the assay with WSU-DLCL2 it was < 0.05 µM.

Turning to `CCN(c1cc(O[C@H]2C[C@H](N3CCN(C(C)=O)CC3)C2)cc(C(=O)NCc2c(C)cc(C)[nH]c2=O)c1C)C1CCOCC1` [Example 26, trans-5-(3-(4-acetylpiperazin-1-yl)cyclobutoxy)-N-((4,6-dimethyl-2-oxo-1,2-dihydropyridin-3-yl)methyl)-3-(ethyl(tetrahydro-2H-pyran-4-yl)amino)-2-methylbenzamide], the IC50 at EZH2 enzyme complex was 0.01 to 0.1 µM; in the assay with Pfeiffer it was < 0.05 µM; in the assay with WSU-DLCL2, 0.05 to 0.5 µM.

`CCN(c1cc(O[C@H]2C[C@@H](N3CCN(S(C)(=O)=O)CC3)C2)cc(C(=O)NCc2c(C)cc(C)[nH]c2=O)c1C)C1CCOCC1` [Example 27, N-((4,6-dimethyl-2-oxo-1,2-dihydropyridin-3-yl)methyl)-3-(ethyl(tetrahydro-2H-pyran-4-yl)amino)-2-methyl-5-(cis-3-(4-(methylsulfonyl)piperazin-1-yl)cyclobutoxy)benzamide]: the half-inhibitory concentration (IC50) was < 0.01 µM at EZH2 enzyme complex, < 0.05 µM in the assay on Pfeiffer and < 0.05 µM in the assay with WSU-DLCL2.
